{"source": "patent US7648966B2", "about": "“Mannose-6-phosphonate compounds for the treatment of inflammatory diseases” (Pharmaxis Pty Limited, priority 2003, dated 2010)", "key": {"[1]": {"test_system": "MBP-specific T lymphocyte cell lines migrating across rat brain endothelial cell monolayer", "assay": "Inhibition of T-lymphocyte migration across rat brain endothelial cell layer (Transwell, 51Cr-labeled cells)", "format": "cell-based, Lewis rats", "conditions": "Rattus norvegicus, T-cell; 10 mM in upper well; 6 hours; compared with negative control; read-out: % inhibition (±SEM) of T cell migration", "procedure": "Preparation of Brain Endothelial Cells (ECs)\nVascular ECs were isolated from rat brain capillaries of 6 to 8 week old Lewis rats according to the method of Risau, W et al., 1990, J. Cell Biol. 110:1757-1766 (which is incorporated herein by reference). Colonies of ECs were purified from astroglial cells and pericytes using anti-Thy1.1-antibody and complement-mediated lysis to remove unwanted Thy1.1+ cells.\nThe EC colonies were grown, using conventional methods, in Dulbecco's Modified Eagle's Medium (DMEM)-high glucose, supplemented, with 20% fetal calf serum (FCS), glutamine, pyruvate, nonessential amino acids, HEPES buffer and antibiotics (kanamycin, amphotericin), and heparin (all from GIBCO). Cultures were supplemented with 150 μg/ml “endothelial growth supplement” from Collaborative Biomedical Products. Upon reaching confluence, EC cultures were washed with 0.2% EDTA in phosphate buffered saline (PBS), trypsinized (Trypsin-EDTA, 0.1% final concentration), washed and re-treated with anti-Thy1.1 antibody for 40 min, washed and incubated with complement sufficient to lyse all Thy1.1+ cells (Behringwerke, AG, Marburg, Germany) at room temperature.\nECs were then plated on Matrigel®-coated 6.5 mm Transwells, […] (Corning Costar Corporation, Cambridge, Mass.). Presence of ECs and confluence of the monolayer were checked by measuring the electrical resistance (World Precision Instruments, New Haven, U.S.A., model EVOM-G) and by staining with FITC-labeled phalloidin (Sigma).\nMyelin Basic Protein (MBP)-Specific T Cell Lines\nTo study the effect of agents of the present invention on T lymphocyte migration, MBP-specific T lymphocyte cell lines were generated according to the method of Ben-Nun et al., Europ. J. Immunol. 11:195-199 (1981); incorporated herein by reference) starting with lymphocytes from the LNs of Lewis rats that had been immunized with MBP in complete Freund's adjuvant (CFA). These cells were used for migration studies during the first 4 days of their propagation in IL-2-containing medium, following MBP restimulation in the presence of antigen-presenting cells (irradiated spleen or thymus cells from normal Lewis rats).\nThese stimulated T lymphocytes were radiolabeled with ^51Cr (Na^51Cr04, 37 MBq/ml, Amersham, UK) for 30 minutes at 37° C. with occasional agitation, they were then washed three times with DMEM and placed into the upper chamber of the Transwells at 5×10^5 cells in 100 μl of “migration medium.” Test and control substance were included in the upper wells at final concentrations of 0.1, 1 and 10 mM. Cell migration was assessed visually by light microscopy to gauge progress of the experiment. The experiment was terminated after 6 hours, whereupon the undersurface of the membrane filters were rinsed twice with 100 μl of ice-cold PBS-0.2% EDTA and combined with the medium of the lower chamber of the well. The combined material was counted for radioactivity in a gamma counter (Packard Auto-Gamma 5650 (Downer's Grove Ill., USA) gamma counter. Each “treatment” group was run in triplicate (test agent, control agent (glucose 6-phosphate) and no treatment).\nInhibition values are in comparison with the negative control."}, "[2]": {"test_system": "picryl chloride-sensitized T lymphocyte migration into the right ear pinna", "assay": "Inhibition of T lymphocyte migration into extralymphatic tissue (picryl chloride-painted ear pinna) in vivo", "set-up": "species or system Balb/c mice", "conditions": "5 mg/mouse IV; 9-10 hours after cell infusion", "from_the_text": "The foregoing methods are recognized and well understood by those skilled in the art and the underlying principles can be found in any immunology textbook such as those cited above. Here donor animals are sensitized to a self protein (in practice, skin is the easiest tissue to use) by chemically modifying the protein(s) in this tissue thereby allowing the chemical moiety to be ‘seen’ as ‘foreign’ tissue by the immune system. This is done by reacting the skin (“painting”) with a ‘hapten’ which is usually an alkylating or arylating agent that reacts covalently with and thereby modifies protein(s) in the skin. Seven to ten days following sensitization, spleens or draining LNs are taken from the donor animals. […] Within a short time of cell transfer sensitized T cells begin to accumulate in the hapten-modified tissue, 8-24 hours later the tissue can be removed and the cell accumulation assessed. In the case of fluorescently-labeled cells, their accumulation is assessed histologically or histochemically, and in the case of radiolabeled cells, accumulation is assessed by counting radioactive decay in a suitable device. […]\nB lymphocytes were depleted as described in Example 3. The enriched lymphocyte population contained approximately 85-90% T lymphocytes and <1% B cells (determined by FACS analysis). […]"}}}
{"smiles": "Cc1ccc(O[C@H]2O[C@H](CCP(=O)(O)O)[C@@H](O)[C@H](O)[C@@H]2O)c(C)c1", "values": [{"measurement": "inhibition at 10000 µM", "setting": "[1]", "value": "90 ± 4", "unit": "%"}, {"measurement": "Percent inhibition of T cell migration (right ear pinna)", "setting": "[2]", "value": 56.1, "unit": "%"}]}
